Test results published in article PMC9779727, “Identification of Novel Artemisinin Hybrids Induce Apoptosis and Ferroptosis in MCF-7 Cells” (International Journal of Molecular Sciences, 2022).

How the values were obtained:
Type in all cases: cell-based, human
MCF-7 cells = assay: Lipid peroxidation (MDA) detection; conditions: MCF-7, added to A8 treatment
Excerpt: We also determined the effect of A8 on the expression of GSH and MDA (lipid peroxidation).
Lipid peroxidation assay kit (Beyotime, Shanghai, China) was used to detect malonaldehyde (MDA), together with GSH level assay, present in samples, as per the manufacturer’s instruction with slight modifications.

GPX4 = assay: Western blotting, GPX4 expression; conditions: MCF-7, added to A8 treatment
Description: We examined the effect of A8 on the expression of GPX4 as well, which is vital in preventing ferroptosis. […] Thus, we concluded that A8 induced the accumulation of ROS and lipid peroxidation and suppressed GSH levels and the expression of GPX4, thereby leading to the induction of ferroptosis.
MCF-7 cells were seeded at a density of 4 × 10^5 cells per well and treated with various concentrations of compound A8 (0, 2.5, 5 and 10 μM) for 48 h. After this, cells were collected and washed twice with ice-cold DPBS. The pellets were resuspended in a total protein extraction buffer (20 mM HEPES, 350 mM NaCl, 20% glycerol, 1% NP-40, 1 mM MgCl2, 0.5 mM EDTA, 0.1 mM EGTA, 0.1 mM DTT, 0.1 mM PMSF) containing a protease inhibitor cocktail and incubated on ice for 30 min with intermittent mixing. The protein concentration was measured using the Bradford reagent (Bio-Rad Laboratories Inc., Hercules, CA, USA). An equal amount (20 μg) of protein was loaded on 10% polyacrylamide gels and transferred to a nitrocellulose membrane. After blocking with 5% skimmed milk, the membrane was incubated at 4 °C overnight with specific primary antibodies. The membrane was washed and incubated at room temperature for 1 h with secondary antibodies conjugated with horseradish peroxidase (HRP). Finally, the immunoblot was developed for visualization using a chemiluminescence kit. […]

lung cancer A549 cells = assay: MTT antiproliferation assay, A549; conditions: means ± SD, n = 3
Excerpt: (§1) The target hybrids A1–A15 were screened for their antiproliferation activities against five human cancer cell lines (lung cancer A549 cells, breast cancer MCF-7 and MDA-MB-231 cells, colon cancer HCT116 cells and ovarian cancer SK-OV-3 cells) in vitro by the standard MTT method, and 5-fluorouracil (5-FU) and ART were coassayed as controls. […] Therefore, the most promising hybrid, A8, was chosen for further exploration of the preliminary mechanism of MCF-7 cell antiproliferation.
(§2) Cytotoxicity of test compounds against five different tumor cell lines were evaluated using an MTT assay in vitro. Cells were seeded into 96-well plates at a density of 5 × 10^4 cells per well and stabilized at 37 °C with 5% CO2 for 24 h. Compounds A1–A15, ART and 5-FU were added to each well at various concentrations and then the cells were incubated for 48 h. The MTT solution (100 μL 0.5 mg/mL^−1) was added to each well, and the cells were incubated for another 4 h. Then, 150 μL DMSO was added to each well and the absorbance of samples was measured at 492 nm. The IC50 values were calculated according to Logit method after getting the inhibitory rate.

[1] = system: breast cancer MCF-7 cells; assay: MTT antiproliferation assay, MCF-7; conditions: means ± SD, n = 3
Excerpt: as §1, §2

[2] = system: colon cancer HCT116 cells; assay: MTT antiproliferation assay, HCT116; conditions: means ± SD, n = 3
Excerpt: as §1, §2

[3] = system: ovarian cancer SK-OV-3 cells; assay: MTT antiproliferation assay, SK-OV-3; conditions: means ± SD, n = 3
Excerpt: as §1, §2

[4] = system: breast cancer MDA-MB-231 cells; assay: MTT antiproliferation assay, MDA-MB-231; conditions: means ± SD, n = 3
Excerpt: as §1, §2

With CCOC(=O)c1ccc(NC2CCCCC2)c(N)c1 [Fer-1, ferrostatin-1, reference compound] the “effect on A8-induced lipid peroxide accumulation (in words)” value (MCF-7 cells) was “reversed lipid peroxide accumulation” and the “effect on A8-suppressed GPX4 expression (in words)” value (GPX4) was “restored the expression of GPX4”.
CC1CCC2C(C)C(OC(=O)CCC(=O)NCc3nnc(Nc4ccc(Cl)cc4)o3)OC3OC4(C)CCC1C32OO4 (centres unmarked) [A6] was tested, and the IC50 (lung cancer A549 cells; 48 h) was over 30 µM, the IC50 ([1]; 48 h) was over 30 µM and the IC50 ([2]; 48 h) was over 30 µM. It also gave an IC50 ([3]; 48 h) of over 30 µM and an IC50 ([4]; 48 h) of over 30 µM.
For C[C@@H]1CC[C@H]2[C@@H](C)C(=O)O[C@@H]3O[C@@]4(C)CC[C@@H]1[C@]32OO4 [ART, Artemisinin], the IC50 (lung cancer A549 cells; Homo sapiens, A549, 48 h) was 27.2 ± 0.67 µM, the IC50 ([1]; Homo sapiens, MCF7, 48 h) was over 30 µM and the IC50 ([2]; Homo sapiens, HCT-116, 48 h) was over 30 µM. The IC50 ([3]; Homo sapiens, SK-OV-3, 48 h) was over 30 µM and the IC50 ([4]; Homo sapiens, MDA-MB-231, 48 h) was over 30 µM.
CC1CCC2C(C)C(OC(=O)CCC(=O)NCc3nnc(Nc4ccccc4F)o3)OC3OC4(C)CCC1C32OO4 (centres unmarked) [A9] showed an IC50 (lung cancer A549 cells; 48 h) of over 30 µM, an IC50 ([1]; 48 h) of 8.89 ± 0.39 µM and an IC50 ([2]; 48 h) of over 30 µM. It also gave an IC50 ([3]; 48 h) of over 30 µM and an IC50 ([4]; 48 h) of over 30 µM.
Molecule Cc1cc(C)cc(Nc2nnc(CNC(=O)CCC(=O)OC3OC4OC5(C)CCC6C(C)CCC(C3C)C46OO5)o2)c1 (centres unmarked) [A13] has an IC50 (lung cancer A549 cells; 48 h) of over 30 µM, an IC50 ([1]; 48 h) of 9.72 ± 0.11 µM and an IC50 ([2]; 48 h) of over 30 µM. It also gave an IC50 ([3]; 48 h) of over 30 µM and an IC50 ([4]; 48 h) of over 30 µM.
CC1CCC2C(C)C(OC(=O)CCC(=O)NCc3nnc(Nc4ccc(Br)cc4)o3)OC3OC4(C)CCC1C32OO4 (centres unmarked) [A11] gave an IC50 (lung cancer A549 cells; 48 h) of over 30 µM, an IC50 ([1]; 48 h) of over 30 µM and an IC50 ([2]; 48 h) of over 30 µM. For the same molecule, the IC50 ([3]; 48 h) was over 30 µM and the IC50 ([4]; 48 h) was over 30 µM.
In the case of CC1CCC2C(C)C(OC(=O)CCC(=O)NCc3nnc(Nc4cc(Br)ccc4Br)o3)OC3OC4(C)CCC1C32OO4 (centres unmarked) [A7], the IC50 (lung cancer A549 cells; 48 h) is reported as over 30 µM, the IC50 ([1]; 48 h) is reported as over 30 µM and the IC50 ([2]; 48 h) is reported as over 30 µM. For the same molecule, the IC50 ([3]; 48 h) was over 30 µM and the IC50 ([4]; 48 h) was over 30 µM.
For COc1ccc(Nc2nnc(CNC(=O)CCC(=O)OC3OC4OC5(C)CCC6C(C)CCC(C3C)C46OO5)o2)cc1 (centres unmarked) [A14], the IC50 (lung cancer A549 cells; 48 h) was over 30 µM, the IC50 ([1]; 48 h) was 6.86 ± 0.73 µM and the IC50 ([2]; 48 h) was over 30 µM. The IC50 ([3]; 48 h) was over 30 µM and the IC50 ([4]; 48 h) was 19.4 ± 0.91 µM.
O=c1[nH]cc(F)c(=O)[nH]1 [5FU, 5-fluorouracil, reference compound] was tested, and the IC50 (lung cancer A549 cells; Homo sapiens, A549, 48 h) was over 30 µM, the IC50 ([1]; Homo sapiens, MCF7, 48 h) was 26.1 ± 0.87 µM and the IC50 ([2]; Homo sapiens, HCT-116, 48 h) was 18.4 ± 1.14 µM. It also gave an IC50 ([3]; Homo sapiens, SK-OV-3, 48 h) of over 30 µM and an IC50 ([4]; Homo sapiens, MDA-MB-231, 48 h) of 27.7 ± 1.23 µM.
With CCOc1ccccc1Nc1nnc(CNC(=O)CCC(=O)OC2OC3OC4(C)CCC5C(C)CCC(C2C)C35OO4)o1 (centres unmarked) [A3] the IC50 (lung cancer A549 cells; 48 h) was over 30 µM, the IC50 ([1]; 48 h) was 6.82 ± 0.25 µM and the IC50 ([2]; 48 h) was over 30 µM. For the same molecule, the IC50 ([3]; 48 h) was over 30 µM and the IC50 ([4]; 48 h) was over 30 µM.
Cc1ccc(Nc2nnc(CNC(=O)CCC(=O)OC3OC4OC5(C)CCC6C(C)CCC(C3C)C46OO5)o2)cc1 (centres unmarked) [A2] showed an IC50 (lung cancer A549 cells; 48 h) of over 30 µM, an IC50 ([1]; 48 h) of 4.26 ± 0.17 µM and an IC50 ([2]; 48 h) of 14.8 ± 1.77 µM. For the same molecule, the IC50 ([3]; 48 h) was over 30 µM and the IC50 ([4]; 48 h) was 4.89 ± 1.58 µM.
Molecule Cc1ccc(Nc2nnc(CNC(=O)CCC(=O)OC3OC4OC5(C)CCC6C(C)CCC(C3C)C46OO5)o2)c(C)c1 (centres unmarked) [A15] has an IC50 (lung cancer A549 cells; 48 h) of over 30 µM, an IC50 ([1]; 48 h) of over 30 µM and an IC50 ([2]; 48 h) of over 30 µM. For the same molecule, the IC50 ([3]; 48 h) was over 30 µM and the IC50 ([4]; 48 h) was over 30 µM.
CC1CCC2C(C)C(OC(=O)CCC(=O)NCc3nnc(Nc4ccc(C(F)(F)F)cc4)o3)OC3OC4(C)CCC1C32OO4 (centres unmarked) [A5] showed an IC50 (lung cancer A549 cells; 48 h) of over 30 µM, an IC50 ([1]; 48 h) of over 30 µM and an IC50 ([2]; 48 h) of over 30 µM. For the same molecule, the IC50 ([3]; 48 h) was over 30 µM and the IC50 ([4]; 48 h) was over 30 µM.
Work on CC1CCC2C(C)C(OC(=O)CCC(=O)NCc3nnc(Nc4c(F)cccc4F)o3)OC3OC4(C)CCC1C32OO4 (centres unmarked) [A4] yielded an IC50 (lung cancer A549 cells; 48 h) of over 30 µM, an IC50 ([1]; 48 h) of over 30 µM and an IC50 ([2]; 48 h) of over 30 µM. The IC50 ([3]; 48 h) was over 30 µM and the IC50 ([4]; 48 h) was over 30 µM.
Molecule CC1CCC2C(C)C(OC(=O)CCC(=O)NCc3nnc(Nc4ccc(OC(F)(F)F)cc4)o3)OC3OC4(C)CCC1C32OO4 (centres unmarked) [A1] has an IC50 (lung cancer A549 cells; 48 h) of over 30 µM, an IC50 ([1]; 48 h) of 5.2 ± 1.38 µM and an IC50 ([2]; 48 h) of over 30 µM. It also gave an IC50 ([3]; 48 h) of over 30 µM and an IC50 ([4]; 48 h) of over 30 µM.
With CC1CCC2C(C)C(OC(=O)CCC(=O)NCc3nnc(Nc4ccc(C(C)(C)C)cc4)o3)OC3OC4(C)CCC1C32OO4 (centres unmarked) [A10] the IC50 (lung cancer A549 cells; 48 h) was over 30 µM, the IC50 ([1]; 48 h) was 11.1 ± 1.28 µM and the IC50 ([2]; 48 h) was over 30 µM. The IC50 ([3]; 48 h) was over 30 µM and the IC50 ([4]; 48 h) was over 30 µM.
